Where a name gives a salt, the structure may show the parent alone. Read-outs that look alike come from different tables or passages of the source.
Assays:
Assay in all cases: AK assay 384-well format, Prestwick library screening
[1] = system: A. baumannii strain 98-37-09; assay type: cell-based, Acinetobacter baumannii; conditions: 50 μM final drug concentration; for fold induction at 50 µM: Acinetobacter baumannii, 983709, 3 h
[2] = system: S. aureus strain USA300-0114; assay type: cell-based, Staphylococcus aureus; conditions: 50 μM final drug concentration; for fold induction at 50 µM: Staphylococcus aureus, USA300, 3 h
E. coli = assay type: cell-based, Escherichia coli; conditions: 50 μM final drug concentration; for fold induction at 50 µM: Escherichia coli, 3 h
E. cloacae = assay type: cell-based, Enterobacter cloacae; conditions: 50 μM final drug concentration; for fold induction at 50 µM: Enterobacter cloacae, 3 h
K. pneumoniae = assay type: cell-based, Klebsiella pneumoniae; conditions: 50 μM final drug concentration; for fold induction at 50 µM: Klebsiella pneumoniae, 3 h
P. aeruginosa = assay type: cell-based, Pseudomonas aeruginosa; conditions: 50 μM final drug concentration; for fold induction at 50 µM: Pseudomonas aeruginosa, 3 h
E. faecium = assay type: cell-based, Enterococcus faecium; conditions: 50 μM final drug concentration; for fold induction at 50 µM: Enterococcus faecium, 3 h
[3] = planktonic A. baumannii, 384-well, cutoff for positive-scoring molecules 3-fold increase, read-out: AK-based Prestwick Library Screening Results: A. baumannii (increase in extracellular AK activity)
[4] = planktonic S. aureus, 384-well, cutoff for positive-scoring molecules 3-fold increase, read-out: AK-based Prestwick Library Screening Results: S. aureus (increase in extracellular AK activity)
[5] = planktonic E. coli, 384-well, cutoff for positive-scoring molecules 3-fold increase, read-out: AK-based Prestwick Library Screening Results: E. coli (increase in extracellular AK activity)
[6] = planktonic E. cloacae, 384-well, cutoff for positive-scoring molecules 3-fold increase, read-out: AK-based Prestwick Library Screening Results: E. cloacae (increase in extracellular AK activity)
[7] = planktonic K. pneumoniae, 384-well, cutoff for positive-scoring molecules 3-fold increase, read-out: AK-based Prestwick Library Screening Results: K. pneumoniae (increase in extracellular AK activity)
[8] = planktonic P. aeruginosa, 384-well, cutoff for positive-scoring molecules 3-fold increase, read-out: AK-based Prestwick Library Screening Results: P. aeruginosa (increase in extracellular AK activity)
[9] = planktonic E. faecium, 384-well, cutoff for positive-scoring molecules 3-fold increase, read-out: AK-based Prestwick Library Screening Results: E. faecium (increase in extracellular AK activity)
[10] = cutoff for positive-scoring molecules 3-fold increase, read-out: AK-based Prestwick Library Screening Results, A. baumannii (fold increase in extracellular AK activity)
[11] = cutoff for positive-scoring molecules 3-fold increase, read-out: AK-based Prestwick Library Screening Results, S. aureus (fold increase in extracellular AK activity)
[12] = cutoff for positive-scoring molecules 3-fold increase, read-out: AK-based Prestwick Library Screening Results, E. coli (fold increase in extracellular AK activity)
[13] = cutoff for positive-scoring molecules 3-fold increase, read-out: AK-based Prestwick Library Screening Results, E. cloacae (fold increase in extracellular AK activity)
[14] = cutoff for positive-scoring molecules 3-fold increase, read-out: AK-based Prestwick Library Screening Results, K. pneumoniae (fold increase in extracellular AK activity)
[15] = cutoff for positive-scoring molecules 3-fold increase, read-out: AK-based Prestwick Library Screening Results, P. aeruginosa (fold increase in extracellular AK activity)
[16] = cutoff for positive-scoring molecules 3-fold increase, read-out: AK-based Prestwick Library Screening Results, E. faecium (fold increase in extracellular AK activity)

For NC(N)=NOCC[C@H](N)C(=O)O.O.O=S(=O)(O)O [Canavanine sulfate monohydrate (L,+)], the “AK-based Prestwick Library Screening Results, A. baumannii (fold increase in extracellular AK activity)” value ([1]; planktonic, […]) was 1.1, the “AK-based Prestwick Library Screening Results, S. aureus (fold increase in extracellular AK activity)” value ([2]; planktonic, […]) was 1.6 and the “AK-based Prestwick Library Screening Results, E. coli (fold increase in extracellular AK activity)” value (E. coli; planktonic, […]) was 1.2. For the same molecule, the “AK-based Prestwick Library Screening Results, E. cloacae (fold increase in extracellular AK activity)” value (E. cloacae; planktonic, […]) was 1.4, the “AK-based Prestwick Library Screening Results, K. pneumoniae (fold increase in extracellular AK activity)” value (K. pneumoniae; planktonic, […]) was 0.9 and the “AK-based Prestwick Library Screening Results, P. aeruginosa (fold increase in extracellular AK activity)” value (P. aeruginosa; planktonic, […]) was 1.1. The “AK-based Prestwick Library Screening Results, E. faecium (fold increase in extracellular AK activity)” value (E. faecium; planktonic, […]) was 1.1.

Work on C[C@]12CCC(=O)C=C1C=C[C@@H]1[C@@H]2CC[C@@]2(C)[C@H]1CC[C@@]2(O)CCC(=O)O [Canrenoic acid potassium salt] yielded a fold induction at 50 µM [1, 3] of 1.5, a fold induction at 50 µM [2, 4] of 1.1 and a fold induction at 50 µM (E. coli; [5]) of 1.4. It also gave a fold induction at 50 µM (E. cloacae; [6]) of 1.2, a fold induction at 50 µM (K. pneumoniae; [7]) of 0.9 and a fold induction at 50 µM (P. aeruginosa; [8]) of 1.3. The fold induction at 50 µM (E. faecium; [9]) was 1.

C[C@@]12C(=O)OC(=O)[C@]1(C)[C@H]1CC[C@@H]2O1 [Cantharidin] gave a fold induction at 50 µM ([1]; planktonic, […], read-out: AK-based Prestwick Library Screening Results, A. baumannii (fold increase in extracellular AK activity)) of 0.5, a fold induction at 50 µM ([2]; planktonic, […], read-out: AK-based Prestwick Library Screening Results, S. aureus (fold increase in extracellular AK activity)) of 0.5 and a fold induction at 50 µM (E. coli; planktonic, […], read-out: AK-based Prestwick Library Screening Results, E. coli (fold increase in extracellular AK activity)) of 0.6. For the same molecule, the fold induction at 50 µM (E. cloacae; planktonic, […], read-out: AK-based Prestwick Library Screening Results, E. cloacae (fold increase in extracellular AK activity)) was 0.6, the fold induction at 50 µM (K. pneumoniae; planktonic, […], read-out: AK-based Prestwick Library Screening Results, K. pneumoniae (fold increase in extracellular AK activity)) was 0.6 and the fold induction at 50 µM (P. aeruginosa; planktonic, […], read-out: AK-based Prestwick Library Screening Results, P. aeruginosa (fold increase in extracellular AK activity)) was 0.5. For the same molecule, the fold induction at 50 µM (E. faecium; planktonic, […], read-out: AK-based Prestwick Library Screening Results, E. faecium (fold increase in extracellular AK activity)) was 0.8.

With COc1cc(CNC(=O)CCCC/C=C/C(C)C)ccc1O [Capsaicin] the fold induction at 50 µM [1, 10] was 1.2, the fold induction at 50 µM [2, 11] was 1.2 and the fold induction at 50 µM (E. coli; [12]) was 1.3. For the same molecule, the fold induction at 50 µM (E. cloacae; [13]) was 1.5, the fold induction at 50 µM (K. pneumoniae; [14]) was 1 and the fold induction at 50 µM (P. aeruginosa; [15]) was 1.1. It also gave a fold induction at 50 µM (E. faecium; [16]) of 1.1.

C[C@H](CS)C(=O)N1CCC[C@H]1C(=O)O [Captopril] was tested, and the fold induction at 50 µM ([1]; 384-well format, cutoff for positive-scoring molecules 3-fold increase, read-out: AK-based Prestwick Library Screening Results, A. baumannii (increase in extracellular AK activity)) was 0.8, the fold induction at 50 µM ([2]; 384-well format, cutoff for positive-scoring molecules 3-fold increase, read-out: AK-based Prestwick Library Screening Results, S. aureus (increase in extracellular AK activity)) was 0.7 and the fold induction at 50 µM (E. coli; 384-well format, cutoff for positive-scoring molecules 3-fold increase, read-out: AK-based Prestwick Library Screening Results, E. coli (increase in extracellular AK activity)) was 0.7. The fold induction at 50 µM (E. cloacae; 384-well format, cutoff for positive-scoring molecules 3-fold increase, read-out: AK-based Prestwick Library Screening Results, E. cloacae (increase in extracellular AK activity)) was 0.8, the fold induction at 50 µM (K. pneumoniae; 384-well format, cutoff for positive-scoring molecules 3-fold increase, read-out: AK-based Prestwick Library Screening Results, K. pneumoniae (increase in extracellular AK activity)) was 0.6 and the fold induction at 50 µM (P. aeruginosa; 384-well format, cutoff for positive-scoring molecules 3-fold increase, read-out: AK-based Prestwick Library Screening Results, P. aeruginosa (increase in extracellular AK activity)) was 0.6. For the same molecule, the fold induction at 50 µM (E. faecium; 384-well format, cutoff for positive-scoring molecules 3-fold increase, read-out: AK-based Prestwick Library Screening Results, E. faecium (increase in extracellular AK activity)) was 1.

For C[N+](C)(C)CCOC(N)=O [Carbachol], the fold induction at 50 µM [1, 10] was 1.3, the fold induction at 50 µM [2, 11] was 1.4 and the fold induction at 50 µM (E. coli; [12]) was 1.2. It also gave a fold induction at 50 µM (E. cloacae; [13]) of 1.2, a fold induction at 50 µM (K. pneumoniae; [14]) of 1.2 and a fold induction at 50 µM (P. aeruginosa; [15]) of 1.2. The fold induction at 50 µM (E. faecium; [16]) was 1.1.

In the case of NC(=O)N1c2ccccc2C=Cc2ccccc21 [Carbamazepine], the fold induction at 50 µM [1, 3] was 0.9, the fold induction at 50 µM [2, 4] was 1 and the fold induction at 50 µM (E. coli; [5]) was 1. For the same molecule, the fold induction at 50 µM (E. cloacae; [6]) was 1.5, the fold induction at 50 µM (K. pneumoniae; [7]) was 0.9 and the fold induction at 50 µM (P. aeruginosa; [8]) was 1. It also gave a fold induction at 50 µM (E. faecium; [9]) of 0.8.

For CC1(C)[C@@H](OC(=O)CCC(=O)O)CC[C@]2(C)[C@H]3C(=O)C=C4[C@@H]5C[C@@](C)(C(=O)O)CC[C@]5(C)CC[C@@]4(C)[C@]3(C)CC[C@@H]12 [Carbenoxolone disodium salt], the fold induction at 50 µM ([1]; planktonic, cutoff for positive-scoring molecules 3-fold increase, read-out: AK-based Prestwick Library Screening Results, A. baumannii (fold increase in extracellular AK activity)) was 1.1, the fold induction at 50 µM ([2]; planktonic, cutoff for positive-scoring molecules 3-fold increase, read-out: AK-based Prestwick Library Screening Results, S. aureus (fold increase in extracellular AK activity)) was 1.6 and the fold induction at 50 µM (E. coli; planktonic, cutoff for positive-scoring molecules 3-fold increase, read-out: AK-based Prestwick Library Screening Results, E. coli (fold increase in extracellular AK activity)) was 0.8. For the same molecule, the fold induction at 50 µM (E. cloacae; planktonic, cutoff for positive-scoring molecules 3-fold increase, read-out: AK-based Prestwick Library Screening Results, E. cloacae (fold increase in extracellular AK activity)) was 1.4, the fold induction at 50 µM (K. pneumoniae; planktonic, cutoff for positive-scoring molecules 3-fold increase, read-out: AK-based Prestwick Library Screening Results, K. pneumoniae (fold increase in extracellular AK activity)) was 0.7 and the fold induction at 50 µM (P. aeruginosa; planktonic, cutoff for positive-scoring molecules 3-fold increase, read-out: AK-based Prestwick Library Screening Results, P. aeruginosa (fold increase in extracellular AK activity)) was 0.9. For the same molecule, the fold induction at 50 µM (E. faecium; planktonic, cutoff for positive-scoring molecules 3-fold increase, read-out: AK-based Prestwick Library Screening Results, E. faecium (fold increase in extracellular AK activity)) was 0.9.

CCN(CC)CCOCCOC(=O)C1(c2ccccc2)CCCC1 [Carbetapentane citrate] gave a fold induction at 50 µM ([1]; planktonic, cutoff for positive 3-fold increase, read-out: AK-based Prestwick Library Screening Results, A. baumannii (fold increase in extracellular AK activity)) of 1.4, a fold induction at 50 µM ([2]; planktonic, cutoff for positive 3-fold increase, read-out: AK-based Prestwick Library Screening Results, S. aureus (fold increase in extracellular AK activity)) of 1.1 and a fold induction at 50 µM (E. coli; planktonic, cutoff for positive 3-fold increase, read-out: AK-based Prestwick Library Screening Results, E. coli (fold increase in extracellular AK activity)) of 1.4. The fold induction at 50 µM (E. cloacae; planktonic, cutoff for positive 3-fold increase, read-out: AK-based Prestwick Library Screening Results, E. cloacae (fold increase in extracellular AK activity)) was 1.4, the fold induction at 50 µM (K. pneumoniae; planktonic, cutoff for positive 3-fold increase, read-out: AK-based Prestwick Library Screening Results, K. pneumoniae (fold increase in extracellular AK activity)) was 1 and the fold induction at 50 µM (P. aeruginosa; planktonic, cutoff for positive 3-fold increase, read-out: AK-based Prestwick Library Screening Results, P. aeruginosa (fold increase in extracellular AK activity)) was 1.2. For the same molecule, the fold induction at 50 µM (E. faecium; planktonic, cutoff for positive 3-fold increase, read-out: AK-based Prestwick Library Screening Results, E. faecium (fold increase in extracellular AK activity)) was 1.
